How the values were obtained:
Assay in all cases: relative viability (nuclei count vs DMSO), 5 days (fraction); higher = more cells survive
Lapatinib + AZD7762 = compound: CS(=O)(=O)CCNCc1ccc(-c2ccc3ncnc(Nc4ccc(OCc5cccc(F)c5)c(Cl)c4)c3c2)o1 [Lapatinib] + NC(=O)Nc1cc(-c2cccc(F)c2)sc1C(=O)N[C@H]1CCCNC1 [AZD7762] (partner 0.2 µM)
Method in brief: (§1)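 Dosing by pin tool came one day after lung cancer cell lines were seeded in 1536-well plates, using either one drug or a fixed anchor-drug dose plus five library-drug doses (not always all listed) in √10 steps. After 5 days, nuclei were counted on 4× images. Relative viability is treated-well nuclei count divided by vehicle-well nuclei count, and values are medians of duplicate plates.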

Wnt-C59 + Trametinib = compound: CC1=NC=CC(=C1)C2=CC=C(C=C2)CC(=O)NC3=CC=C(C=C3)C4=CN=CC=C4 [Wnt-C59] + CC(=O)Nc1cccc(-n2c(=O)n(C3CC3)c(=O)c3c(Nc4ccc(I)cc4F)n(C)c(=O)c(C)c32)c1 [Trametinib] (partner 0.02 µM)
Method in brief: as §1

Wnt-C59 + Olaparib = compound: CC1=NC=CC(=C1)C2=CC=C(C=C2)CC(=O)NC3=CC=C(C=C3)C4=CN=CC=C4 [Wnt-C59] + O=C(c1cc(Cc2n[nH]c(=O)c3ccccc23)ccc1F)N1CCN(C(=O)C2CC2)CC1 [Olaparib] (partner 8 µM)
Method in brief: as §1

Lapatinib + Foretinib = compound: CS(=O)(=O)CCNCc1ccc(-c2ccc3ncnc(Nc4ccc(OCc5cccc(F)c5)c(Cl)c4)c3c2)o1 [Lapatinib] + COc1cc2c(Oc3ccc(NC(=O)C4(C(=O)Nc5ccc(F)cc5)CC4)cc3F)ccnc2cc1OCCCN1CCOCC1 [Foretinib] (partner 0.25 µM)
Method in brief: as §1

Cell Line	relative viability (Lapatinib + AZD7762; first compound 0.06325 µM)	relative viability (Lapatinib + AZD7762; first compound 0.2 µM)	relative viability (Lapatinib + AZD7762; first compound 0.6325 µM)	relative viability (Lapatinib + AZD7762; first compound 2 µM)	relative viability (Wnt-C59 + Trametinib; first compound 0.001 µM)	relative viability (Wnt-C59 + Trametinib; first compound 0.01 µM)	relative viability (Wnt-C59 + Trametinib; first compound 0.03162 µM)	relative viability (Wnt-C59 + Trametinib; first compound 0.1 µM)	relative viability (Wnt-C59 + Olaparib; first compound 0.001 µM)	relative viability (Wnt-C59 + Olaparib; first compound 0.01 µM)	relative viability (Wnt-C59 + Olaparib; first compound 0.03162 µM)	relative viability (Wnt-C59 + Olaparib; first compound 0.1 µM)	relative viability (Lapatinib + Foretinib; first compound 0.02 µM)	relative viability (Lapatinib + Foretinib; first compound 0.06325 µM)	relative viability (Lapatinib + Foretinib; first compound 0.2 µM)	relative viability (Lapatinib + Foretinib; first compound 0.6325 µM)	relative viability (Lapatinib + Foretinib; first compound 2 µM)	relative viability (Lapatinib + AZD7762; first compound 0.02 µM)
HOP-62	0.526	0.669	0.501	0.568	0.347	0.366	0.352	0.347	0.523	0.266	0.363	0.343	1.14	1.16	1.03	1.09	1.13	–
NCI-H1915	0.71	0.685	0.705	0.592	0.302	0.304	0.346	0.31	0.256	0.266	0.248	0.239	–	1.06	1.12	1.08	1.09	–
NCI-H650	0.735	1.03	1.04	0.977	0.984	0.934	1.08	1.05	0.415	0.354	0.418	0.454	–	0.94	0.989	1.06	0.979	–
NCI-H2342	0.408	0.381	0.447	0.394	0.786	0.757	0.91	0.797	0.792	0.489	0.446	0.396	1.09	1.01	0.946	0.975	0.712	0.421
NCI-H3122	0.9	0.999	1.04	0.973	0.18	0.243	0.207	0.218	0.633	0.549	0.637	0.504	0.944	0.901	0.96	0.872	0.928	0.959
SW 900	0.549	0.549	0.591	0.466	0.809	0.745	0.793	0.6	0.887	0.814	0.987	0.987	–	0.808	0.659	0.781	0.734	–
NCI-H2085	0.886	0.929	0.797	0.526	0.599	0.577	0.58	0.614	0.795	0.769	0.822	0.744	–	0.737	0.899	0.862	0.535	0.881
NCI-H1395	0.364	0.428	0.383	0.414	0.931	0.995	1.04	1.02	0.497	0.444	0.411	0.424	1.03	1.04	1.01	0.929	0.917	–
EKVX	0.518	0.693	0.708	0.663	0.366	–	0.324	0.319	0.837	–	0.906	0.72	0.202	0.738	0.822	0.581	0.201	–
HCC-15	1.09	1.24	1.24	1.16	0.417	0.371	0.404	0.359	0.745	0.73	0.738	0.667	–	0.812	1.02	0.949	0.971	–
LK-2	–	0.379	–	0.636	0.767	0.869	0.713	0.817	0.728	0.819	0.739	0.748	–	–	1.39	1.42	1.07	0.393
NCI-H1355	0.627	0.72	0.753	0.549	0.455	0.404	0.423	0.373	0.726	0.756	0.717	0.716	–	0.795	0.94	0.93	0.657	0.674
NCI-H441	–	1.15	0.856	1.14	0.474	0.451	0.465	0.434	0.569	0.632	0.633	0.447	–	0.931	1.01	0.822	1.1	1.17
NCI-H322M	0.538	0.536	0.475	0.454	0.581	0.484	0.412	0.504	0.704	0.804	0.828	0.765	1.04	0.809	0.944	0.911	0.611	0.557
NCI-H1993	–	0.86	0.499	0.455	0.634	0.486	0.507	0.465	1.17	1.06	1.11	0.413	0.691	–	0.75	0.71	0.762	0.615
LOU-NH91	0.58	0.696	0.703	0.599	0.817	0.788	0.802	0.792	0.966	0.873	0.955	0.883	0.902	0.815	0.689	0.604	0.498	0.76
201T	0.585	0.601	0.591	0.608	0.698	0.747	0.733	0.698	0.845	0.884	0.841	0.867	1.18	–	1.03	1.03	0.76	0.513
LXF-289	1.09	1.05	1.13	0.957	0.617	0.629	0.73	0.632	1.14	1.09	1.03	1.04	0.996	0.953	0.967	0.948	0.851	1.02
